This note sets out measurements from ChEMBL document CHEMBL4376822, “Hot-Spots of Mcl-1 Protein” (J Med Chem, 2020).

pIC50, pKi: −log10 of the molar value.

By pIC50 is commonly meant the negative decadic logarithm of the IC50, by convention in mol/L. Usually pKi stands for the negative decadic logarithm of the Ki, by convention in mol/L. Read a high pKi as a small Ki.

The target in assay [1] is T1, Induced myeloid leukemia cell differentiation protein Mcl-1 (Homo sapiens, UniProt Q07820). The experiment in a line: Inhibition of TAMRA-labeled BIM BH3 peptide binding to human Mcl1 (171 to 327 residues) incubated for 120 mins by fluorescence polarization.
T1 sequence (Q07820 whole entry, the tested form may be a part): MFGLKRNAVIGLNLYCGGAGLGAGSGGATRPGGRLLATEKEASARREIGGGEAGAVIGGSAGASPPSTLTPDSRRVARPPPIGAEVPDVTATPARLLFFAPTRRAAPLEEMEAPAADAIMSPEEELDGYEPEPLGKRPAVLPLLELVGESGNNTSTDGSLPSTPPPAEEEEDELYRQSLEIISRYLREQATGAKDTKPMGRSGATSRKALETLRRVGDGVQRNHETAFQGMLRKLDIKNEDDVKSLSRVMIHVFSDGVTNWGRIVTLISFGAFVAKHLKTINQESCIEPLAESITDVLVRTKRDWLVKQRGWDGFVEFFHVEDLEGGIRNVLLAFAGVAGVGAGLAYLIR
In assay [2] the target is T2, Apoptosis regulator Bcl-2 (Homo sapiens, UniProt P10415). Put plainly: Displacement of fluorescein labelled Puma-BH3 peptide from human BCl2 expressed in Escherichia coli BL21 (DE3) pLysS cells incubated for 2 hrs by fluorescence polarization assay. (In general: Polarisation of emitted light reports the rotation of a fluorescent probe.)
T2 sequence (P10415 whole entry): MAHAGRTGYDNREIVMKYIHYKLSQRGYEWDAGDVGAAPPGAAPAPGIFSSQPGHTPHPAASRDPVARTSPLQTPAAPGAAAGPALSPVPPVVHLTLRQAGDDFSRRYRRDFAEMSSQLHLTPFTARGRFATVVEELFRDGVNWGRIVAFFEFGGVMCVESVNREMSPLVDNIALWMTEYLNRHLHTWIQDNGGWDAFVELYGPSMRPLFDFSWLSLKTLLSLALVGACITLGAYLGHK
Assay [3] addresses T1, Induced myeloid leukemia cell differentiation protein Mcl-1.
Assay [4] has as its target T2, Apoptosis regulator Bcl-2. The experiment in a line: Inhibition of wild-type BCL-2 (unknown origin) expressed in Escherichia coli BL21 cells using biotinylated BIMBH3 or BAXBH3 peptide by surface plasmon resonance assay. (In general: SPR reads the build-up and loss of mass on a sensor chip optically.)
A short description of assay [5]: Inhibition of human GST-tagged BCL-XL deltaC24 mutant using BIMBH3 mutant peptide as substrate by SPR assay.
The target in assay [6] is T2, Apoptosis regulator Bcl-2. The experiment in a line: Inhibition of human BCl2 expressed in Escherichia coli BL21 (DE3) pLysS cells by surface plasmon resonance assay.
Assay [7] is described as follows: Inhibition of human GST-tagged BCL-XL deltaC25 mutant using biotinylated BIM 26-mer peptide as substrate incubated for 30 mins by AlphaScreen assay. Background: In Alpha technology, singlet oxygen from a donor bead excites a nearby acceptor bead.
Assay [8] has as its target T1, Induced myeloid leukemia cell differentiation protein Mcl-1. The experiment in a line: Displacement of fluorescein labelled Puma-BH3 peptide from His-tagged-TEV fused human Mcl-1 incubated for 2 hrs by fluorescence polarization assay.
The target of assay [9] is T2, Apoptosis regulator Bcl-2. The experiment in a line: Inhibition of Bcl-2 (unknown origin) by fluorescence polarization assay.

On to `O=C1NS(=O)(=O)CCOCCCCCCN2C[C@@]3(CCCc4cc(Cl)ccc43)COc3ccc1cc32`, for which the pIC50 in [1] was 8.00. The compound `CCCCN(CCCC)C(=O)c1cc(C)n(-c2ccccc2C(=O)N2Cc3ccccc3C[C@H]2CN)n1` had a negative logarithm of the IC50 (pIC50) in assay [2] of 5.89. In turn, `Cc1ccccc1-c1cccc2c(CCCOc3cccc4ccccc34)c(C(=O)O)[nH]c12` gave a pIC50 in assay [3] of 5.96. As to `NC[C@@H]1Cc2ccccc2CN1C(=O)c1cc2c(cc1-c1cc(C(=O)N(c3ccccc3)c3ccc(O)cc3)c3n1CCCC3)OCO2`, the negative logarithm of the Ki (pKi) in [4] is 9.44.

Consider `CN(C)CC[C@H](CSc1ccccc1)Nc1ccc(S(=O)(=O)NC(=O)c2ccc(N3CCN(Cc4ccccc4-c4ccccc4)CC3)cc2)cc1[N+](=O)[O-]`, for which the pIC50 in assay [5] was 7.96.

The compound `C[N+](C)(CC[C@H](CSc1ccccc1)Nc1ccc(S(=O)(=O)NC(=O)c2ccc(N3CCN(Cc4ccccc4-c4ccc(Cl)cc4)CC3)cc2)cc1[N+](=O)[O-])CC(=O)O` gave a negative logarithm of the IC50 (pIC50) in assay [2] of 6.30. For `CC[C@H](C)[C@H](NC(=O)[C@H](CCC(=O)O)NC(=O)[C@H](CCCNC(=N)N)NC(=O)[C@H](C)NC(=O)[C@H](Cc1c[nH]c2ccccc12)NC(=O)[C@H](CCC(N)=O)NC(=O)[C@H](CCC(=O)O)NC(=O)[C@@H](N)CCC(=O)O)C(=O)NCC(=O)N[C@@H](C)C(=O)N[C@@H](CCC(N)=O)C(=O)N[C@@H](CC(C)C)C(=O)N[C@@H](CCCNC(=N)N)C(=O)N[C@@H](CCCNC(=N)N)C(=O)N[C@@H](CCSC)C(=O)N[C@@H](C)C(=O)N[C@@H](CC(=O)O)C(=O)N[C@@H](CC(=O)O)C(=O)N[C@@H](CC(C)C)C(=O)N[C@@H](CC(N)=O)C(=O)N[C@@H](C)C(=O)N[C@@H](CCC(N)=O)C(=O)N[C@@H](Cc1ccc(O)cc1)C(=O)N[C@@H](CCC(=O)O)C(=O)N[C@@H](CCCNC(=N)N)C(=O)O`, in [6], the negative-log IC50 (pIC50) was 8.48. Take `C/C(=N\Nc1nc2ccccc2s1)c1ccc(-c2ccc(S(=O)(=O)NC(=O)CCCCCc3ccccc3)cc2)o1`: the pIC50 in assay [7] is 6.11. In assay [8], `Cc1n[nH]c(C)c1-c1cccc2c(CCCOc3cccc4ccccc34)c(C(=O)O)[nH]c12` gave a negative-log IC50 (pIC50) of 7.00. As to `O=C(NS(=O)(=O)c1ccc(NC2CCOCC2)c([N+](=O)[O-])c1)c1ccc(N2CCN(CC3=C(c4ccc(Cl)cc4)COCC3)CC2)cc1`, in [9], the pKi was 7.23. On to `CCc1sc2ncnc(N[C@@H](CO)C(=O)O)c2c1-c1ccccc1`, for which the negative logarithm of the IC50 (pIC50) in assay [8] was 3.28. In turn, `O=C(O)c1nc(-c2ccc3c(c2)/C(=N/Nc2nc4ccccc4s2)CCC3)sc1CCCCc1ccccc1` gave a pIC50 in [7] of 7.62.

In assay [7], `O=C(O)c1cccc(-c2ccc3c(c2)/C(=N/Nc2nc4ccccc4s2)CCC3)n1` had a pIC50 of […]. In turn, `COc1cc2c(cc1C(CN1CCCC1)c1ccc(-c3ccc(C(=O)NS(=O)(=O)c4ccc(C[C@H](CCN5CCOCC5)CSc5ccccc5)c(S(=O)(=O)C(F)(F)F)c4)cc3)cc1)OCO2` (some centres undefined) showed a pIC50 in assay [2] of 7.70.
